Series [1] relates to Salmonella typhimurium. In words: Mutagenicity against Salmonella typhimurium TA100 assessed as revertants at […] incubated for 90 mins followed by drug washout measured after 2 days relative to positive control. It is filed as toxicity, organism-based. As to conditions: salmonella enterica subsp. enterica serovar typhimurium.
Series [2] concerns Salmonella typhimurium. In words: Mutagenicity against Salmonella typhimurium TA100 assessed as revertants at 5 uM incubated for 90 mins followed by drug washout measured after 2 days relative to positive control. In kind it is toxicity, organism-based. As to conditions: salmonella enterica subsp. enterica serovar typhimurium, 1.5 h.
In series [3] the test system is Salmonella typhimurium. In words: Mutagenicity against Salmonella typhimurium TA100 assessed as revertants at 10 uM incubated for 90 mins followed by drug washout measured after 2 days relative to positive control. In kind it is toxicity, organism-based. Particulars: salmonella enterica subsp. enterica serovar typhimurium.
In series [4] the test system is Salmonella typhimurium. In words: Mutagenicity against Salmonella typhimurium TA100 assessed as revertants at 20 uM incubated for 90 mins followed by drug washout measured after 2 days relative to positive control. In kind it is toxicity, organism-based. Particulars: salmonella enterica subsp. enterica serovar typhimurium, 1.5 h.
Series [5] in a line: Half life in po dosed human plasma. In kind it is ADME, organism-based.
For series [6], the system named is Homo sapiens. In words: Volume of distribution in po dosed human measured in plasma. It is filed as ADME, organism-based. As to conditions: in vivo.
For series [7], the system named is Homo sapiens. In words: Volume of distribution in po dosed human measured in whole blood. It is filed as ADME, organism-based. Particulars: in vivo.
Series [8] has as its system Salmonella typhimurium. In words: Mutagenicity against Salmonella typhimurium TA98 assessed as revertants at 40 uM incubated for 90 mins followed by drug washout measured after 2 days relative to positive control. It is filed as toxicity, organism-based. As to conditions: salmonella enterica subsp. enterica serovar typhimurium.
For series [9], the system named is Salmonella typhimurium. In words: Mutagenicity against Salmonella typhimurium TA98 assessed as revertants at 80 uM incubated for 90 mins followed by drug washout measured after 2 days relative to positive control. In kind it is toxicity, organism-based. Particulars: salmonella enterica subsp. enterica serovar typhimurium, 1.5 h.
For series [10], the system named is Salmonella typhimurium. In words: Mutagenicity against Salmonella typhimurium TA98 assessed as revertants at […] incubated for 90 mins followed by drug washout measured after 2 days relative to positive control. In kind it is toxicity, organism-based. As to conditions: salmonella enterica subsp. enterica serovar typhimurium.
Series [11] relates to Salmonella typhimurium. In words: Mutagenicity against Salmonella typhimurium TA98 assessed as revertants at 5 uM incubated for 90 mins followed by drug washout measured after 2 days relative to positive control. As to conditions: salmonella enterica subsp. enterica serovar typhimurium, 1.5 h. It is filed as toxicity, organism-based.
Series [12] has as its system Salmonella typhimurium. In words: Mutagenicity against Salmonella typhimurium TA98 assessed as revertants at 10 uM incubated for 90 mins followed by drug washout measured after 2 days relative to positive control. In kind it is toxicity, organism-based. Particulars: salmonella enterica subsp. enterica serovar typhimurium, 1.5 h.
Series [13] concerns Salmonella typhimurium. In words: Mutagenicity against Salmonella typhimurium TA98 assessed as revertants at 20 uM incubated for 90 mins followed by drug washout measured after 2 days relative to positive control. In kind it is toxicity, organism-based. As to conditions: salmonella enterica subsp. enterica serovar typhimurium, 1.5 h.
The test system of series [14] is Salmonella typhimurium. In words: Mutagenicity against Salmonella typhimurium TA100 assessed as revertants at 40 uM incubated for 90 mins followed by drug washout measured after 2 days relative to positive control. It is filed as toxicity, organism-based. Particulars: salmonella enterica subsp. enterica serovar typhimurium.
In series [15] the test system is Salmonella typhimurium. In words: Mutagenicity against Salmonella typhimurium TA100 assessed as revertants at 80 uM incubated for 90 mins followed by drug washout measured after 2 days relative to positive control. In kind it is toxicity, organism-based. As to conditions: salmonella enterica subsp. enterica serovar typhimurium.
Series [16] is described as follows: Cytotoxicity against mouse NIH3T3 cells after 24 hrs by neutral red dye uptake assay. In kind it is cell-based. Particulars: read-out: TC50.
Series [17] in a line: Cytotoxicity against human HepG2 cells after 24 hrs by neutral red dye uptake assay. In kind it is cell-based. As to conditions: read-out: TC50.

Bounds are passed on as bounds.

With `CCN(CC)CCCC(C)Nc1ccnc2cc(Cl)ccc12` (configuration not stated) [CHLOROQUINE], the Activity is 36% with Salmonella typhimurium [1]; 21% in the series on Salmonella typhimurium [2]; 26% with Salmonella typhimurium [3]; 7% in the series with Salmonella typhimurium [4]; 19% in the series on Salmonella typhimurium [8]; 50% in the series on Salmonella typhimurium [9]. In addition, the Activity worked out at 24% in the series with Salmonella typhimurium [10]; 14% in the series with Salmonella typhimurium [11]; 61% in the series with Salmonella typhimurium [12]; 29% in the series with Salmonella typhimurium [13]; 38% in the series on Salmonella typhimurium [14]; 23% with Salmonella typhimurium [15]. Besides, the half-life (commonly how long it takes for the measured level to halve) in [5] was 20 days. Also, the Vd in the series with Homo sapiens [6] and in the series with Homo sapiens [7] was 200 L/kg in each case. In addition, the CC50 at 24 h was greater than 80 µM in [16] and 4.3 µM in [17].

These data come from ChEMBL document CHEMBL2169878 (J Med Chem, 2012).
